Laboratory results: patent US10294259B2, “Phenyl c-glucoside derivative containing deoxyglucose structure, preparation method and use thereof” (Tianjin Institute of Pharmaceutical Research, priority 2012, dated 2019)
Where two headings read alike, the source gives them in different places.

Key:
[1] = system: SD rats (type 2 diabetes model); test: Urine glucose excretion in streptozotocin/high-fat high-sucrose diet type 2 diabetes model rats, glucose-oxidase method; format: in vivo, rat; conditions: for urine glucose excretion effect (comparison in words): compared with analogues or non-deoxy compounds; for Urine glucose excretion: 6 mg/kg intragastric, glucose 2 g/kg at 0.5 h, urine collected 0-12 h
Description: The health SD rats are injected intraperitoneally with multiple low doses of streptozotocin for modeling (type 2 diabetes model) after feeding with high-fat and high-sucrose diet, and the content of blood glucose is measured before and after modeling. After the modeling successful, the rats for modeling are randomly divided (8 rats/group) into one blank group (administering the same volume of 0.5% CMC sodium solution) and several groups for compounds to be tested (6 mg/kg) according to the content of 24-hour urine glucose and the body weight. Rats in each group are fasted for 16 hours before experiment. The experimental rats are administered intragastrically with glucose (2 g/kg) at 0.5 h after intragastrical administration with compounds to be tested. The urine is collected at the time-period of 0-12 h after administration, and the urine glucose values are measured at each time-period by glucose-oxidase method. […]

hSGLT2 = hSGLT2 (Homo sapiens (Human), UniProt P31639); test: IC50 of inhibition on SGLT2 (method of Meng et al., J. Med. Chem. 2008); format: cell-based
[2] = single dose 750 mg/kg intragastric, 10 mice/group, observed one week
[3] = both, mouse, in vivo, 750 mg/kg, 1 week
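Wherever Behaviors after administration with the compound to be tested is given: test animals were mice weighing 18-20 g, with both sexes in equal numbers in each group.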

Sequence of hSGLT2 (P31639 whole entry): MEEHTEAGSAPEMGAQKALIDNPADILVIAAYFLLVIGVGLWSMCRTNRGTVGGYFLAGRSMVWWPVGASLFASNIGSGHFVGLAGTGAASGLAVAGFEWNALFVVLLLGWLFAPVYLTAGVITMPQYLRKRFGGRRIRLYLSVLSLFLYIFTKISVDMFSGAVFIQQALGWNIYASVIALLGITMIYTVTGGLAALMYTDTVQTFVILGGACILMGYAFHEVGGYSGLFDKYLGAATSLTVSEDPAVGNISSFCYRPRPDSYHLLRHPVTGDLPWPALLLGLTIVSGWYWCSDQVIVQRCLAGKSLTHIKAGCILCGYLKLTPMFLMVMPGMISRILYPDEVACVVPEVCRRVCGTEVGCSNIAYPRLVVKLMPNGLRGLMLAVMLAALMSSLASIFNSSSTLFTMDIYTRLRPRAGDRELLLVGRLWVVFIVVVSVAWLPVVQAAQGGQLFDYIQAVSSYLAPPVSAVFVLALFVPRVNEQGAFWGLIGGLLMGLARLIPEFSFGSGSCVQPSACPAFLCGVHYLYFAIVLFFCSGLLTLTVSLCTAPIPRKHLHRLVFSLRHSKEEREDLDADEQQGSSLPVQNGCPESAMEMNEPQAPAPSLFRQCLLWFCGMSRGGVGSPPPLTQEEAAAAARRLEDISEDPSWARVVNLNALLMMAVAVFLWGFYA
Description for Mice: Mice (18-20 g) with equal numbers of male and female are divided into groups (10 mice/group), after normal feeding for 3 days, fasted for 12 hours, and then administered intragastrically with a single dose of 750 mg/kg compound respectively.

Row | SMILES | Behaviors after administration with the compound to be tested (Mice; [2]) [dead] | other results
1 | CCOc1ccc(Cc2cc([C@]34OC[C@](C)(O3)[C@@H](O)[C@H](O)[C@H]4O)ccc2Cl)cc1 | 3 | –
2 | OCC1OC(c2ccc(Cl)c(Cc3ccc(O[C@H]4CCOC4)cc3)c2)C(O)CC1O (stereo partly shown) | 0 | –
3 | Cc1ccc(C2OC(CO)CC(O)C2O)cc1Cc1ccc(-c2ccc(F)cc2)s1 (stereo not shown) | 3 | –
4 | CCOc1ccc(Cc2cc([C@@H]3O[C@H](CO)[C@@H](O)C[C@H]3O)ccc2Cl)cc1 [I-D1-3, (1S)-1-[4-chloro-3-(4-ethoxybenzyl)phenyl]-1,3-dideoxy-D-glucose] | – | urine glucose excretion effect (comparison in words) [1]: stronger urine glucose excretion effect
5 | CCOc1ccc(Cc2cc([C@]34OC[C@](CO)(O3)[C@@H](O)C[C@H]4O)ccc2Cl)cc1 | 3 | –
6 | CCc1ccc(Cc2c(Cl)ccc3c2COC32OC(CO)CC(O)C2O)cc1 (stereo not shown) | 5 | –
7 | CCOc1ccc(Cc2cc(C3CC(O)C(O)C(CO)S3)c(OC)cc2C)cc1 (stereo not shown) | 3 | –
8 | CCOc1ccc(Cc2cc([C@]34OC[C@](CO)(O3)[C@@H](O)[C@H](O)[C@H]4O)ccc2Cl)cc1 | 9 | –
9 | COc1ccc(Cc2cc(C3OC(CO)CC(O)C3O)ccc2Cl)cc1 (stereo not shown) | – | Urine glucose excretion [1]: 310 mg/200 g body weight of the rat
10 | Cc1ccc(C2OC(C)C(O)C(O)C2O)cc1Cc1ccc(-c2ccc(F)cc2)s1 (stereo not shown) | 4 | –
11 | COc1ccc(Oc2cc(C3OC(C)C(O)C(O)C3O)ccc2Cl)cc1 (stereo not shown) | – | Urine glucose excretion [1]: 457 mg/200 g body weight of the rat
12 | CCOc1ccc(Cc2cc([C@]34C[C@@H](O)[C@H](O)[C@](CO)(CO3)O4)ccc2Cl)cc1 | 2 | –
13 | OCC1OC(c2ccc(F)c(Cc3cc4ccccc4s3)c2)CC(O)C1O (stereo not shown) | 3 | –
14 | CCc1ccc(Cc2c(Cl)ccc3c2COC32OC(CO)C(O)CC2O)cc1 (stereo not shown) | 5 | –
15 | CCc1ccc(Cc2c(Cl)ccc3c2COC32OC(C)C(O)C(O)C2O)cc1 (stereo not shown) | 3 | –
16 | CCOc1ccc(Cc2cc(C3CC(O)C(O)C(CO)O3)ccc2Cl)cc1 (stereo not shown) | 2 | –
17 | OCC1CC(O)C(O)C(c2ccc(Cl)c(Cc3ccc(O[C@H]4CCOC4)cc3)c2)O1 (stereo partly shown) | 2 | –
18 | CCCOc1ccc(Cc2cc(C3OC(C)C(O)C(O)C3O)ccc2Cl)cc1 (stereo not shown) | 6 | –
19 | CCOc1ccc(Cc2cc([C@@H]3C[C@@H](O)[C@H](O)[C@@H](CO)O3)ccc2Cl)cc1 [I-D1-2, (1S)-1-[4-chloro-3-(4-ethoxybenzyl)phenyl]-1,2-dideoxy-D-glucose] | – | urine glucose excretion effect (comparison in words) [1]: stronger urine glucose excretion effect
20 | CCOc1ccc(Cc2cc(C3OC(CO)C(O)C(O)C3O)ccc2Cl)cc1 (stereo not shown) | 8 | –

Row | SMILES | Behaviors after administration with the compound to be tested (Mice; [2]) [dead] | other results
21 | CCc1ccc(Cc2c(Cl)ccc3c2COC32CC(O)CC(CO)O2)cc1 (stereo not shown) | 1 | –
22 | OCC1OC(c2ccc(Cl)c(Cc3ccc(O[C@H]4CCOC4)cc3)c2)CC(O)C1O (stereo partly shown) | 2 | –
23 | COc1ccc(Cc2cc(C3OC(C)C(O)C(O)C3O)ccc2Cl)cc1 (stereo not shown) [drawing 311] | – | Selectivity IC50 (hSGLT1)/IC50 (hSGLT2) (hSGLT2): 26
24 | CC1OC(c2ccc(F)c(Cc3cc4ccccc4s3)c2)C(O)C(O)C1O (stereo not shown) | 2 | –
25 | OCC1OC(c2ccc(F)c(Cc3cc4ccccc4s3)c2)C(O)C(O)C1O (stereo not shown) | – | Behaviors after administration with the compound to be tested (Mice; [3]): 7 dead
26 | CCc1ccc(Cc2c(Cl)ccc3c2COC32OC(CO)C(O)C(O)C2O)cc1 (stereo not shown) [drawing 269] | 7 | –
27 | CCOc1ccc(Cc2cc([C@@H]3O[C@H](CO)C[C@H](O)[C@H]3O)ccc2Cl)cc1 [I-D1-4, (1S)-1-[4-chloro-3-(4-ethoxybenzyl)phenyl]-1,4-dideoxy-D-glucose] | – | urine glucose excretion effect (comparison in words) [1]: stronger urine glucose excretion effect
28 | CCOc1ccc(Cc2cc([C@@]34OC[C@@](CO)(C[C@H](O)[C@H]3O)O4)ccc2Cl)cc1 | 4 | –
29 | C=C1OC(c2ccc(Cl)c(Cc3ccc(OC)cc3)c2)C(O)C(O)C1O (stereo not shown) | – | Urine glucose excretion [1]: 410 mg/200 g body weight of the rat
30 | CC1OC(c2ccc(Cl)c(Cc3ccc(O[C@H]4CCOC4)cc3)c2)C(O)C(O)C1O (stereo partly shown) | 1 | –
31 | CCOc1ccc(Cc2cc(C3OC(C)CC(O)C3O)ccc2Cl)cc1 (stereo not shown) | 1 | –
32 | Cc1ccc(C2CC(O)C(O)C(CO)O2)cc1Cc1ccc(-c2ccc(F)cc2)s1 (stereo not shown) | 5 | –
33 | CCc1ccc(Cc2c(Cl)ccc3c2COC32OC(CO)C(O)C(O)C2O)cc1 (stereo not shown) [drawing 258] | – | Urine glucose excretion [1]: 755 mg/200 g body weight of the rat
34 | CCOc1ccc(Cc2cc(C3SC(CO)C(O)CC3O)c(OC)cc2C)cc1 (stereo not shown) [drawing 303] | 0 | –
35 | CCOc1ccc(Cc2cc(C3CCC(O)C(CO)S3)c(OC)cc2C)cc1 (stereo not shown) [drawing 310] | 0 | –
36 | CCc1ccc(Cc2cc(C3OC(CO)C(O)CC3O)ccc2C)cc1 (stereo not shown) | – | Urine glucose excretion [1]: 230 mg/200 g body weight of the rat
37 | CCOc1ccc(Cc2cc(C3SC(CO)C(O)CC3O)c(OC)cc2C)cc1 (stereo not shown) [drawing 304] | 3 | –
38 | OCC1CC(O)C(O)C(c2ccc(F)c(Cc3cc4ccccc4s3)c2)O1 (stereo not shown) | 1 | –
39 | CCOc1ccc(Cc2cc(C3OC(CO)CC(O)C3O)ccc2Cl)cc1 (stereo not shown) [drawing 272] | 2 | –
40 | Cc1ccc(C2OC(C)C(O)CC2O)cc1Cc1ccc(-c2ccc(F)cc2)s1 (stereo not shown) | 0 | –

Row | SMILES | Behaviors after administration with the compound to be tested (Mice; [2]) [dead] | other results
41 | COc1ccc(Cc2cc(C3OC(C)C(O)C(O)C3O)ccc2Cl)cc1 (stereo not shown) [drawing 281] | 7 | –
42 | CCOc1ccc(Cc2cc(C3OC(CO)C(O)CC3O)ccc2Cl)cc1 (stereo not shown) | 3 | –
43 | Cc1ccc(C2OC(CO)C(O)C(O)C2O)cc1Cc1ccc(-c2ccc(F)cc2)s1 (stereo not shown) | 9 | –
44 | OCC1OC(c2ccc(Cl)c(Cc3ccc(O[C@H]4CCOC4)cc3)c2)C(O)C(O)C1O (stereo partly shown) | 7 | –
45 | CCOc1ccc(Cc2cc(C3OC(CO)CC(O)C3O)ccc2Cl)cc1 (stereo not shown) [drawing 229] | – | Urine glucose excretion [1]: 880 mg/200 g body weight of the rat
46 | CC1OC(c2ccc(F)c(Cc3cc4ccccc4s3)c2)CC(O)C1O (stereo not shown) | 1 | –
47 | CCOc1ccc(Cc2cc(C3SC(CO)CC(O)C3O)c(OC)cc2C)cc1 (stereo not shown) | 1 | –
48 | CCOc1ccc(Cc2cc(C3CCC(O)C(CO)S3)c(OC)cc2C)cc1 (stereo not shown) [drawing 266] | – | Urine glucose excretion [1]: 730 mg/200 g body weight of the rat
49 | CCOc1ccc(Cc2cc(C3SC(C)C(O)C(O)C3O)c(OC)cc2C)cc1 (stereo not shown) | 4 | –
50 | CCc1ccc(Cc2c(Cl)ccc3c2COC32CC(O)C(O)C(CO)O2)cc1 (stereo not shown) | 2 | –
51 | CCOc1ccc(Cc2cc(C3OC(C)C(O)C(O)C3O)ccc2C)cc1 (stereo not shown) [drawing 313] | – | Selectivity IC50 (hSGLT1)/IC50 (hSGLT2) (hSGLT2): 24
52 | Cc1ccc(C2OC(CO)C(O)CC2O)cc1Cc1ccc(-c2ccc(F)cc2)s1 (stereo not shown) | 3 | –
53 | OCC1OC(c2ccc(F)c(Cc3cc4ccccc4s3)c2)C(O)CC1O (stereo not shown) | 0 | –
54 | CCOc1ccc(Cc2cc(C3OC(C)(C)C(O)C(O)C3O)ccc2Cl)cc1 (stereo not shown) | – | Urine glucose excretion [1]: 470 mg/200 g body weight of the rat
55 | OCC1CCC(O)C(c2ccc(Cl)c(Cc3ccc(O[C@H]4CCOC4)cc3)c2)O1 (stereo partly shown) | 2 | –
56 | CCOc1ccc(Cc2cc(C3OC(C)C(O)C(O)C3O)ccc2Cl)cc1 (stereo not shown) [drawing 282] | 1 | –
57 | CCOc1ccc(Cc2cc(C3SC(CO)C(O)C(O)C3O)c(OC)cc2C)cc1 (stereo not shown) | – | Behaviors after administration with the compound to be tested (Mice; [3]): 10 dead
58 | CCOc1ccc(Cc2cc(C3OC(C)C(O)C(O)C3O)ccc2C)cc1 (stereo not shown) [drawing 219] | – | Urine glucose excretion [1]: 700 mg/200 g body weight of the rat
